Results taken from US20170101670A1, “METHOD FOR DETECTING RARE MUTATION” (NATIONAL CANCER CENTER, priority 2015, published 2017).

Test system: Human TK6 lymphoblasts
Experiment: Induction of point mutation of genomic DNA by mutagen in cultured cells, detected by sequencing 100 copies of genomic DNA
Assay type: cell-based
Conditions: TK6 cells exposed to 0, 0.1, 0.3, 1, 3, 10 or 30 μM for 24 hours, collected day 7; variants with ratio 0.8 to 10% counted; three independent analyses; FIG. 2
Procedure: In Example 1, N-nitroso-N-methylurea (hereinafter referred to as “MNU”) that was a mutagen was administered to cultured cells, to induce a point mutation of genomic DNA. Then, mutation was detected by the detection method of this embodiment, and the appearance frequency of the mutation was calculated. This analysis was independently performed three times.
Human TK6 lymphoblasts (hereinafter, referred to as “TK6 cell”) were obtained from American Type Culture Collection. On day 0, 1×10^5 cells of TK6 cells were seeded on a 10 cm plate. On day 1, the TK6 cells were exposed to MNU (Sigma) in a concentration of 0, 0.1, 0.3, 1, 3, 10 or 30 μM for 24 hours. On day 7, the number of cells was counted, and the cells were collected. Then, genomic DNA was extracted by phenol/chloroform method.
The copy number of the extracted genomic DNA was determined quantitatively by real-time PCR using SYBR (registered trademark) green I (BioWhittaker Molecular Applications) and iCycler Thermal Cycler (Bio-Rad Laboratories, Inc.). In the table, “F” means a forward primer, and “R” means a reverse primer. Each sample was measured using three kinds of primers. […]
A sample containing 100 copies of genomic DNA was prepared, based on the measurement result of the copy number. […] The average number of reads of sequencing was 5,000. Among the analyzed 48,587 bases, 15,724 bases were selected. […]

SMILES: CN(N=O)C(N)=O [MNU, N-nitroso-N-methylurea]
- appearance frequency of point mutation (somatic mutation induced by mutagen): correlation between the administration amount of MNU and the accumulation of mutations
